# Test results: PubChem BioAssay (NCI)
#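 Test compounds were applied to cells in 96-well plates for 48 hours at 5 doses. GI50 marks 50% less growth. TGI marks complete inhibition of growth.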
# Columns and labels:
# Experiment in all cases: inhibition of tumour cell growth, NCI panel, 48 h
# SF-539 CNS = system: SF-539 CNS
# OVCAR-3 ovarian = system: OVCAR-3 ovarian
# KM20L2 colon = system: KM20L2 colon
# SK-MEL-28 melanoma = system: SK-MEL-28 melanoma
# NCI-H460 lung = system: NCI-H460 lung
# HCC-2998 colon = system: HCC-2998 colon
# MOLT-4 leukemia = system: MOLT-4 leukemia
# DMS 114 small cell lung = system: DMS 114 small cell lung
# BT-549 breast = system: BT-549 breast
# PC-3 prostate = system: PC-3 prostate
structure (smiles),measurement,setting,value
COc1cc([C@@H]2OC(=O)C3C2C(=O)O[C@H]3c2cc(OC)c(OC)c(OC)c2)cc(OC)c1OC (stereo partly specified),TGI,SF-539 CNS,> 100 µM
same,TGI,OVCAR-3 ovarian,> 100 µM
same,TGI,KM20L2 colon,> 100 µM
same,TGI,SK-MEL-28 melanoma,> 100 µM
same,TGI,NCI-H460 lung,> 100 µM
same,TGI,HCC-2998 colon,> 100 µM
same,TGI,MOLT-4 leukemia,> 100 µM
same,TGI,DMS 114 small cell lung,> 100 µM
N#CC(C#N)=C1SCC(=O)CS1,TGI,SF-539 CNS,> 100 µM
same,TGI,OVCAR-3 ovarian,> 100 µM
same,TGI,KM20L2 colon,> 100 µM
same,TGI,NCI-H460 lung,> 100 µM
same,TGI,HCC-2998 colon,> 100 µM
same,TGI,MOLT-4 leukemia,> 100 µM
same,TGI,DMS 114 small cell lung,> 100 µM
CCOC(=O)NC(=O)c1cn(CCN2CCN(C(=O)NCCCCCCNC(=O)N3CCN(CCn4cc(C(=O)NC(=O)OCC)c(=O)n(CCN(CC)CC)c4=O)CC3)CC2)c(=O)n(CCC(CC)CC)c1=O,TGI,SF-539 CNS,> 100 µM
same,TGI,OVCAR-3 ovarian,> 100 µM
same,TGI,KM20L2 colon,> 100 µM
same,TGI,SK-MEL-28 melanoma,> 100 µM
same,TGI,NCI-H460 lung,> 100 µM
same,TGI,HCC-2998 colon,> 100 µM
same,TGI,DMS 114 small cell lung,> 100 µM
C[CH2][Sn]([Cl])([Cl])[CH2]C,GI50,SF-539 CNS,40.1 µM
same,TGI,SF-539 CNS,> 100 µM
same,GI50,OVCAR-3 ovarian,98 µM
same,TGI,OVCAR-3 ovarian,> 100 µM
same,GI50,KM20L2 colon,71.4 µM
same,TGI,KM20L2 colon,> 100 µM
same,GI50,SK-MEL-28 melanoma,19.8 µM
same,TGI,SK-MEL-28 melanoma,36.3 µM
same,GI50,NCI-H460 lung,> 64.3 µM
same,TGI,NCI-H460 lung,> 100 µM
same,GI50,HCC-2998 colon,> 64.9 µM
same,TGI,HCC-2998 colon,> 100 µM
same,GI50,MOLT-4 leukemia,29 µM
same,TGI,MOLT-4 leukemia,> 94.5 µM
same,GI50,DMS 114 small cell lung,16.2 µM
same,TGI,DMS 114 small cell lung,31.4 µM
C=C(C)[C@H](O)C(O)CC(C)[C@@H]1CCC23CC12CCC1[C@@]2(C)CCC(OC(C)=O)C(C)(C)C2CC(OC2OC(COC(C)=O)C(O)C(O)C2O)[C@]13C (stereo partly specified),TGI,SF-539 CNS,12.8 µM
same,TGI,OVCAR-3 ovarian,11.6 µM
same,TGI,KM20L2 colon,9.84 µM
same,TGI,SK-MEL-28 melanoma,13.3 µM
same,TGI,NCI-H460 lung,11.5 µM
same,TGI,HCC-2998 colon,12.4 µM
same,TGI,MOLT-4 leukemia,8.94 µM
same,TGI,DMS 114 small cell lung,10.7 µM
Clc1ccc(SCCCCCCCCCCSc2ccc(Cl)cc2)cc1,TGI,SF-539 CNS,> 100 µM
same,TGI,OVCAR-3 ovarian,> 70.7 µM
same,TGI,KM20L2 colon,> 87 µM
same,TGI,SK-MEL-28 melanoma,> 100 µM
same,TGI,NCI-H460 lung,> 78.7 µM
same,TGI,HCC-2998 colon,> 64.6 µM
same,TGI,MOLT-4 leukemia,> 100 µM
same,TGI,DMS 114 small cell lung,> 100 µM
c1ccc(SC(CCCCOC2CCCCO2)Sc2ccccc2)cc1 (stereo unspecified),TGI,SF-539 CNS,> 100 µM
same,TGI,OVCAR-3 ovarian,> 100 µM
same,TGI,SK-MEL-28 melanoma,> 100 µM
same,TGI,NCI-H460 lung,> 100 µM
same,TGI,HCC-2998 colon,> 100 µM
same,TGI,MOLT-4 leukemia,> 100 µM
same,TGI,DMS 114 small cell lung,> 100 µM
Cc1cccc2c1C(=O)OC2(C)c1cccc2ccccc12 (stereo unspecified),TGI,OVCAR-3 ovarian,78.8 µM
same,TGI,KM20L2 colon,59.5 µM
same,TGI,SK-MEL-28 melanoma,> 100 µM
same,TGI,NCI-H460 lung,> 100 µM
same,TGI,HCC-2998 colon,50.9 µM
same,TGI,MOLT-4 leukemia,88.8 µM
same,TGI,DMS 114 small cell lung,> 100 µM
COc1ccc2c(c1)CC1c3c(cc4c(c3-2)OCO4)CCN1C (stereo unspecified),TGI,SF-539 CNS,> 100 µM
same,TGI,OVCAR-3 ovarian,88.4 µM
same,TGI,KM20L2 colon,> 100 µM
same,TGI,SK-MEL-28 melanoma,95.8 µM
same,TGI,NCI-H460 lung,60.4 µM
same,TGI,HCC-2998 colon,> 100 µM
same,TGI,MOLT-4 leukemia,64.9 µM
same,TGI,DMS 114 small cell lung,68.8 µM
C=CCN=C1NC(=O)C(CC(=O)Nc2ccc(C)cc2)S1 (stereo unspecified),TGI,SF-539 CNS,> 100 µM
same,TGI,OVCAR-3 ovarian,> 100 µM
same,TGI,KM20L2 colon,> 100 µM
same,TGI,SK-MEL-28 melanoma,> 100 µM
same,TGI,NCI-H460 lung,> 100 µM
same,TGI,HCC-2998 colon,> 100 µM
same,TGI,MOLT-4 leukemia,> 100 µM
same,TGI,DMS 114 small cell lung,> 100 µM
Cc1cccc2c1C/C(=C1\CCc3c(C)cccc31)C2=O,TGI,OVCAR-3 ovarian,> 100 µM
same,TGI,KM20L2 colon,> 100 µM
same,TGI,SK-MEL-28 melanoma,> 100 µM
same,TGI,NCI-H460 lung,> 100 µM
same,TGI,HCC-2998 colon,> 100 µM
same,TGI,MOLT-4 leukemia,> 100 µM
same,TGI,DMS 114 small cell lung,> 100 µM
O=C(N/C(=C\c1ccc(Oc2ccc(Cl)c(Cl)c2)cc1)c1nc2ccccc2[nH]1)c1ccccc1,TGI,SF-539 CNS,32.7 µM
same,TGI,OVCAR-3 ovarian,41 µM
same,TGI,KM20L2 colon,37.2 µM
same,TGI,SK-MEL-28 melanoma,35.1 µM
same,TGI,HCC-2998 colon,31.7 µM
same,TGI,MOLT-4 leukemia,93.4 µM
NC(CCSC(F)F)C(=O)O (stereo unspecified),TGI,SF-539 CNS,> 100 µM
same,TGI,OVCAR-3 ovarian,> 100 µM
same,TGI,KM20L2 colon,> 100 µM
same,TGI,SK-MEL-28 melanoma,> 100 µM
same,TGI,NCI-H460 lung,> 100 µM
same,TGI,HCC-2998 colon,> 100 µM
same,TGI,MOLT-4 leukemia,> 100 µM
same,TGI,DMS 114 small cell lung,> 100 µM
CCOc1ccccc1NC(=O)C1=C(C)NC(C)=C(C(=O)Nc2ccccc2OCC)C1c1ccc(NC(C)=O)cc1,TGI,SF-539 CNS,> 100 µM
same,TGI,OVCAR-3 ovarian,> 100 µM
same,TGI,KM20L2 colon,98.9 µM
same,TGI,SK-MEL-28 melanoma,> 100 µM
same,TGI,NCI-H460 lung,> 100 µM
same,TGI,HCC-2998 colon,35.7 µM
same,TGI,MOLT-4 leukemia,> 100 µM
same,TGI,DMS 114 small cell lung,> 100 µM
CC1=Nn2c(nnc2-c2ccc(N)cc2)NC(C)(C)C1,TGI,SF-539 CNS,> 100 µM
same,TGI,OVCAR-3 ovarian,> 100 µM
same,TGI,KM20L2 colon,> 100 µM
same,TGI,SK-MEL-28 melanoma,> 100 µM
same,TGI,NCI-H460 lung,> 100 µM
same,TGI,HCC-2998 colon,> 100 µM
same,TGI,MOLT-4 leukemia,> 100 µM
same,TGI,DMS 114 small cell lung,> 100 µM
OC(CNC1CCCC1)Cn1c2ccccc2c2ccccc21 (stereo unspecified),GI50,BT-549 breast,25.1 µM
same,TGI,BT-549 breast,> 100 µM
same,GI50,SF-539 CNS,24.4 µM
same,TGI,SF-539 CNS,82.9 µM
same,GI50,OVCAR-3 ovarian,51.3 µM
same,TGI,OVCAR-3 ovarian,> 100 µM
same,GI50,SK-MEL-28 melanoma,> 100 µM
same,TGI,SK-MEL-28 melanoma,> 100 µM
same,GI50,NCI-H460 lung,> 100 µM
same,TGI,NCI-H460 lung,> 100 µM
same,GI50,PC-3 prostate,> 100 µM
same,TGI,PC-3 prostate,> 100 µM
same,GI50,HCC-2998 colon,> 100 µM
same,TGI,HCC-2998 colon,> 100 µM
same,GI50,MOLT-4 leukemia,> 100 µM
same,TGI,MOLT-4 leukemia,> 100 µM
C[C@@H]1C[C@@]2(O[C@@H]2C)C(=O)O[C@@H]2CCN3CC=C(COC(=O)[C@]1(C)O)[C@H]23,TGI,BT-549 breast,> 100 µM
same,TGI,SF-539 CNS,> 100 µM
same,TGI,OVCAR-3 ovarian,> 100 µM
same,TGI,SK-MEL-28 melanoma,> 100 µM
same,TGI,NCI-H460 lung,> 100 µM
same,TGI,PC-3 prostate,> 100 µM
same,TGI,HCC-2998 colon,> 100 µM
same,TGI,MOLT-4 leukemia,> 100 µM
N=C(N)c1ccc(-c2ccc(-c3cccs3)s2)nc1,GI50,BT-549 breast,4.79 µM
same,TGI,BT-549 breast,16.3 µM
same,GI50,SF-539 CNS,1.57 µM
same,TGI,SF-539 CNS,3.08 µM
same,GI50,OVCAR-3 ovarian,0.234 µM
same,TGI,OVCAR-3 ovarian,2.31 µM
same,GI50,SK-MEL-28 melanoma,1.7 µM
same,TGI,SK-MEL-28 melanoma,3.65 µM
same,GI50,NCI-H460 lung,0.0334 µM
same,TGI,NCI-H460 lung,0.449 µM
same,GI50,PC-3 prostate,1.88 µM
same,TGI,PC-3 prostate,6.11 µM
same,GI50,HCC-2998 colon,0.771 µM
same,TGI,HCC-2998 colon,2.08 µM
same,GI50,MOLT-4 leukemia,1.96 µM
same,TGI,MOLT-4 leukemia,4.13 µM
N#Cc1nc2cc(F)c(F)cc2nc1-c1ccc(Cl)cc1,GI50,BT-549 breast,19.8 µM
same,TGI,BT-549 breast,40.3 µM
same,GI50,SF-539 CNS,> 60.6 µM
same,TGI,SF-539 CNS,> 100 µM
same,GI50,OVCAR-3 ovarian,2.24 µM
same,TGI,OVCAR-3 ovarian,8.28 µM
same,GI50,SK-MEL-28 melanoma,22 µM
same,TGI,SK-MEL-28 melanoma,> 100 µM
same,GI50,NCI-H460 lung,57.5 µM
same,TGI,NCI-H460 lung,> 100 µM
same,GI50,PC-3 prostate,4.27 µM
same,TGI,PC-3 prostate,20.2 µM
same,GI50,HCC-2998 colon,3.93 µM
same,TGI,HCC-2998 colon,17.6 µM
same,GI50,MOLT-4 leukemia,3.21 µM
same,TGI,MOLT-4 leukemia,> 28.3 µM
COc1cc(/C=C2/C(=O)NC(Cc3cc(OC)c(OC)c(C)c3OC)C(=O)N2Cc2ccccc2)c(OC)c(C)c1OC (stereo unspecified),TGI,SF-539 CNS,> 100 µM
same,TGI,OVCAR-3 ovarian,> 100 µM
same,TGI,KM20L2 colon,> 100 µM
same,TGI,SK-MEL-28 melanoma,> 100 µM
same,TGI,NCI-H460 lung,> 100 µM
same,TGI,HCC-2998 colon,> 100 µM
same,TGI,MOLT-4 leukemia,70.5 µM
same,TGI,DMS 114 small cell lung,> 100 µM
COc1ccc2c(c1)OC(N)=C(C#N)C2c1ccc(F)cc1 (stereo unspecified),GI50,BT-549 breast,1.63 µM
same,TGI,BT-549 breast,31.2 µM
same,GI50,SF-539 CNS,1.64 µM
same,TGI,SF-539 CNS,6.58 µM
same,GI50,OVCAR-3 ovarian,0.829 µM
same,TGI,OVCAR-3 ovarian,14.2 µM
same,GI50,SK-MEL-28 melanoma,15.2 µM
same,TGI,SK-MEL-28 melanoma,> 100 µM
same,GI50,NCI-H460 lung,2.05 µM
same,TGI,NCI-H460 lung,> 100 µM
same,GI50,PC-3 prostate,3.09 µM
same,TGI,PC-3 prostate,99 µM
same,GI50,HCC-2998 colon,6.44 µM
same,TGI,HCC-2998 colon,> 100 µM
same,GI50,MOLT-4 leukemia,1.32 µM
same,TGI,MOLT-4 leukemia,> 100 µM
